According to US20200231614A1, “PSMA TARGETED RADIOHALOGENATED UREAS FOR CANCER RADIOTHERAPY” (THE JOHNS HOPKINS UNIVERSITY, priority 2015, published 2020):
Read-outs that look alike come from different tables or passages of the source.

Test system: PSMA + PC-3 PiP and PSMA − PC-3 flu tumor xenografts
Details: for Biodistribution: PC-3 PiP: PSMA+ tumor xenograft; for Biodistribution: PC-3 flu: PSMA− tumor xenograft

N=C(N)NCc1ccc(C(=O)NCCCC[C@H](NC(=O)N[C@@H](CCC(=O)O)C(=O)O)C(=O)O)cc1[131I] [[^131I] labeled 7 (PSMA-620)]
Biodistribution: Sm int. (1 H post-injection): 3.14 ± 0.66 % ID/g | Biodistribution: bladder (1 H post-injection): 1.99 ± 0.50 % ID/g | Biodistribution: blood (1 H post-injection): 0.95 ± 0.15 % ID/g | Biodistribution: heart (1 H post-injection): 1.29 ± 0.37 % ID/g | Biodistribution: kidney (1 H post-injection): 103 ± 24.0 % ID/g | Biodistribution: liver (1 H post-injection): 8.25 ± 2.47 % ID/g | Biodistribution: lung (1 H post-injection): 3.29 ± 0.56 % ID/g | Biodistribution: muscle (1 H post-injection): 0.56 ± 0.05 % ID/g | Biodistribution: spleen (1 H post-injection): 17.1 ± 3.71 % ID/g | Biodistribution: stomach (1 H post-injection): 2.01 ± 0.41 % ID/g | Biodistribution: thyroid (1 H post-injection): 0.79 ± 0.17 % ID/g | Biodistribution: Sm int. (2 H post-injection): 2.29 ± 0.69 % ID/g | Biodistribution: bladder (2 H post-injection): 1.65 ± 0.48 % ID/g | Biodistribution: blood (2 H post-injection): 0.58 ± 0.08 % ID/g | Biodistribution: heart (2 H post-injection): 0.89 ± 0.18 % ID/g | Biodistribution: kidney (2 H post-injection): 89.0 ± 5.18 % ID/g | Biodistribution: liver (2 H post-injection): 5.62 ± 1.17 % ID/g | Biodistribution: lung (2 H post-injection): 1.99 ± 0.23 % ID/g | Biodistribution: muscle (2 H post-injection): 0.34 ± 0.08 % ID/g | Biodistribution: spleen (2 H post-injection): 6.81 ± 3.20 % ID/g | Biodistribution: stomach (2 H post-injection): 2.55 ± 0.69 % ID/g | Biodistribution: thyroid (2 H post-injection): 0.77 ± 0.25 % ID/g | Biodistribution: Sm int. (4 H post-injection): 1.32 ± 0.68 % ID/g | Biodistribution: bladder (4 H post-injection): 1.96 ± 1.10 % ID/g | Biodistribution: blood (4 H post-injection): 0.30 ± 0.08 % ID/g | Biodistribution: heart (4 H post-injection): 0.75 ± 0.34 % ID/g | Biodistribution: kidney (4 H post-injection): 77.7 ± 38.8 % ID/g | Biodistribution: liver (4 H post-injection): 4.37 ± 2.96 % ID/g | Biodistribution: lung (4 H post-injection): 1.69 ± 0.67 % ID/g | Biodistribution: muscle (4 H post-injection): 0.23 ± 0.10 % ID/g | Biodistribution: spleen (4 H post-injection): 3.63 ± 2.40 % ID/g | Biodistribution: stomach (4 H post-injection): 2.87 ± 0.55 % ID/g | Biodistribution: thyroid (4 H post-injection): 0.75 ± 0.17 % ID/g | Biodistribution: Sm int. (14 H post-injection): 0.42 ± 0.12 % ID/g | Biodistribution: bladder (14 H post-injection): 0.74 ± 0.35 % ID/g | Biodistribution: blood (14 H post-injection): 0.16 ± 0.04 % ID/g | Biodistribution: heart (14 H post-injection): 0.48 ± 0.12 % ID/g | Biodistribution: kidney (14 H post-injection): 17.2 ± 10.7 % ID/g | Biodistribution: liver (14 H post-injection): 0.60 ± 0.28 % ID/g | Biodistribution: lung (14 H post-injection): 1.02 ± 0.27 % ID/g | Biodistribution: muscle (14 H post-injection): 0.10 ± 0.02 % ID/g | Biodistribution: spleen (14 H post-injection): 1.27 ± 0.42 % ID/g | Biodistribution: stomach (14 H post-injection): 2.24 ± 1.08 % ID/g | Biodistribution: thyroid (14 H post-injection): 0.74 ± 0.27 % ID/g | Biodistribution: Sm int. (21 H post-injection): 0.31 ± 0.07 % ID/g | Biodistribution: bladder (21 H post-injection): 0.56 ± 0.37 % ID/g | Biodistribution: blood (21 H post-injection): 0.09 ± 0.07 % ID/g | Biodistribution: heart (21 H post-injection): 0.40 ± 0.11 % ID/g | Biodistribution: kidney (21 H post-injection): 7.52 ± 1.82 % ID/g | Biodistribution: liver (21 H post-injection): 0.33 ± 0.06 % ID/g | Biodistribution: lung (21 H post-injection): 1.00 ± 0.21 % ID/g | Biodistribution: muscle (21 H post-injection): 0.09 ± 0.01 % ID/g | Biodistribution: spleen (21 H post-injection): 0.93 ± 0.37 % ID/g | Biodistribution: stomach (21 H post-injection): 1.91 ± 0.95 % ID/g | Biodistribution: thyroid (21 H post-injection): 0.88 ± 0.13 % ID/g | Biodistribution: PC-3 PiP (1 H post-injection): 16.5 ± 4.78 % ID/g | Biodistribution: PC-3 PiP (2 H post-injection): 17.2 ± 4.34 % ID/g | Biodistribution: PC-3 PiP (4 H post-injection): 18.3 ± 4.27 % ID/g | Biodistribution: PC-3 PiP (14 H post-injection): 15.8 ± 2.42 % ID/g | Biodistribution: PC-3 PiP (21 H post-injection): 13.6 ± 3.33 % ID/g | Biodistribution: PC-3 flu (1 H post-injection): 1.09 ± 0.21 % ID/g | Biodistribution: PC-3 flu (2 H post-injection): 0.80 ± 0.11 % ID/g | Biodistribution: PC-3 flu (4 H post-injection): 0.57 ± 0.21 % ID/g | Biodistribution: PC-3 flu (14 H post-injection): 0.28 ± 0.10 % ID/g | Biodistribution: PC-3 flu (21 H post-injection): 0.20 ± 0.08 % ID/g

N=C(N)NCc1ccc(C(=O)NCCCCC(NC(=O)CCCCCCC(=O)NCCCC[C@H](NC(=O)N[C@@H](CCC(=O)O)C(=O)O)C(=O)O)C(=O)O)cc1[131I] (some centres unmarked) [[^131I] labeled PSMA-904]
Biodistribution: Lrg Int. (1 H post-injection): 0.50 ± 0.65 % ID/g | Biodistribution: Sm int. (1 H post-injection): 33.81 ± 6.36 % ID/g | Biodistribution: bladder (1 H post-injection): 0.71 ± 0.23 % ID/g | Biodistribution: blood (1 H post-injection): 0.46 ± 0.17 % ID/g | Biodistribution: heart (1 H post-injection): 0.46 ± 0.18 % ID/g | Biodistribution: kidney (1 H post-injection): 121 ± 23.8 % ID/g | Biodistribution: liver (1 H post-injection): 5.16 ± 3.81 % ID/g | Biodistribution: lung (1 H post-injection): 1.39 ± 0.36 % ID/g | Biodistribution: muscle (1 H post-injection): 0.31 ± 0.14 % ID/g | Biodistribution: spleen (1 H post-injection): 9.83 ± 3.28 % ID/g | Biodistribution: stomach (1 H post-injection): 0.73 ± 0.26 % ID/g | Biodistribution: thyroid (1 H post-injection): 0.11 ± 0.13 % ID/g | Biodistribution: Lrg Int. (2 H post-injection): 21.3 ± 15.9 % ID/g | Biodistribution: Sm int. (2 H post-injection): 14.2 ± 12.0 % ID/g | Biodistribution: bladder (2 H post-injection): 0.64 ± 0.25 % ID/g | Biodistribution: blood (2 H post-injection): 0.18 ± 0.07 % ID/g | Biodistribution: heart (2 H post-injection): 0.27 ± 0.14 % ID/g | Biodistribution: kidney (2 H post-injection): 110 ± 37.2 % ID/g | Biodistribution: liver (2 H post-injection): 3.48 ± 2.35 % ID/g | Biodistribution: lung (2 H post-injection): 0.81 ± 0.37 % ID/g | Biodistribution: muscle (2 H post-injection): 0.13 ± 0.03 % ID/g | Biodistribution: spleen (2 H post-injection): 3.41 ± 2.01 % ID/g | Biodistribution: stomach (2 H post-injection): 1.03 ± 0.62 % ID/g | Biodistribution: thyroid (2 H post-injection): 0.31 ± 0.23 % ID/g | Biodistribution: Lrg Int. (21 H post-injection): 14.5 ± 8.08 % ID/g | Biodistribution: Sm int. (21 H post-injection): 0.87 ± 0.92 % ID/g | Biodistribution: bladder (21 H post-injection): 0.07 ± 0.09 % ID/g | Biodistribution: blood (21 H post-injection): 0.02 ± 0.01 % ID/g | Biodistribution: heart (21 H post-injection): 0.02 ± 0.01 % ID/g | Biodistribution: kidney (21 H post-injection): 3.03 ± 2.96 % ID/g | Biodistribution: liver (21 H post-injection): 0.24 ± 0.39 % ID/g | Biodistribution: lung (21 H post-injection): 0.03 ± 0.01 % ID/g | Biodistribution: muscle (21 H post-injection): 0.03 ± 0.02 % ID/g | Biodistribution: spleen (21 H post-injection): 0.16 ± 0.07 % ID/g | Biodistribution: stomach (21 H post-injection): 1.98 ± 3.10 % ID/g | Biodistribution: thyroid (21 H post-injection): 0.42 ± 0.35 % ID/g | Biodistribution: PC-3 PiP (1 H post-injection): 27.6 ± 7.59 % ID/g | Biodistribution: PC-3 PiP (2 H post-injection): 24.7 ± 9.77 % ID/g | Biodistribution: PC-3 PiP (21 H post-injection): 19.2 ± 7.28 % ID/g | Biodistribution: PC-3 flu (1 H post-injection): 0.49 ± 0.23 % ID/g | Biodistribution: PC-3 flu (2 H post-injection): 0.22 ± 0.06 % ID/g | Biodistribution: PC-3 flu (21 H post-injection): 0.02 ± 0.01 % ID/g
